Six molecules from paper PMC7875478 (Journal of veterinary pharmacology and therapeutics, 2020) can be followed below.

In data set [1] the test system is equine CYP3A97.
Another data set has as its system equine CYP3A93. The conditions noted are these: 5-OH flunixin formation.
The test system of a further data set is equine CYP1A1. As to conditions: 5-OH flunixin formation.
Data set [2] can be described thus: Flunixin meglumine metabolism to 5-OH flunixin in equine liver microsomes. As to conditions: for Vmax (or Vmax1) / Ki: 5-OH flunixin formation; for Ki: substrate inhibition model. The data set is classed as in vitro ADME. A general note: Microsomes from liver hold many membrane-bound enzymes, among them those of drug oxidation.
The next data set deals with CYP2C92. Briefly: Incubation of FM with recombinant equine CYP2C92. The data set is classed as in vitro ADME.
A short description of data set [3]: Phenylbutazone metabolism in equine liver microsomes. The conditions noted are these: metabolite formation from PBZ. In kind it is in vitro ADME.
The test system of data set [4] is equine CYP3A97. Kind of data set: Phenylbutazone metabolism to oxyphenbutazone by recombinant equine CYP3A97. In kind it is in vitro ADME. As to conditions: oxyphenbutazone formation from PBZ.
Data set [5] relates to equine liver microsomal P450 forming gamma-hydroxy phenylbutazone. Briefly: Cytochrome P450 inhibition assay with PBZ in equine liver microsomes. The conditions noted are these: horse, equine liver microsomes, pH 7.4. The data set is classed as in vitro ADME.
The subject of the next data set is recombinant CYP3A97. Briefly: Cytochrome P450 inhibition assay with PBZ and recombinant CYP3A97. The conditions noted are these: recombinant CYP3A97, inhibitor 10 μM, PBZ 400 μM.
Data set [6] can be described thus: Cytochrome P450 inhibition assay with PBZ in equine liver microsomes. In kind it is in vitro ADME. As to conditions: inhibitor 10 μM, PBZ 400 μM.
Where [7] appears, read: read-out: Km (or Km1), 5-OH flunixin formation.

Where two headings read alike, the source gives them in different places.

Take `Cc1c(Nc2ncc(O)cc2C(=O)O)cccc1C(F)(F)F` [5-OH flunixin, 5-hydroxy-flunixin]: the Best fit model result was “Michaelis-Menten” in the data set on equine CYP3A97 [1] (5-OH flunixin formation); “Biphasic” in the data set with equine CYP3A93 (CYP3A93); “Biphasic” with equine CYP1A1 (CYP1A1); “Michaelis-Menten” with equine CYP3A95 (5-OH flunixin formation); “Michaelis-Menten” with equine CYP3A94 (5-OH flunixin formation); “Substrate Inhibition” in data set [2] (5-OH flunixin formation from FM). Further, the “Vmax (or Vmax1)” value in the data set with equine CYP3A97 [1] (5-OH flunixin formation) stood at 0.450 pmol/min/pmol P450; in the data set on equine CYP3A93 (CYP3A93, high-affinity phase) it was 0.148 pmol/min/pmol P450; with equine CYP1A1 (CYP1A1, high-affinity phase), 1.39 pmol/min/pmol P450; in the data set on equine CYP3A95 (5-OH flunixin formation), 0.675 pmol/min/pmol P450; in the data set on equine CYP3A94 (5-OH flunixin formation), 1.39 pmol/min/pmol P450; in data set [2] (horse 1) it was 0.613 pmol/min/pmol P450. Further, the “Vmax (or Vmax1)” value in [2] (horse 2) came to 0.803 pmol/min/pmol P450. Also, the Km in the data set on equine CYP3A97 [1] (setting [7]) was 4.07 µM; in the data set with equine CYP3A93 (read-out: Km (or Km1), CYP3A93, high-affinity phase) it was 37.6 µM; with equine CYP1A1 (read-out: Km (or Km1), CYP1A1, high-affinity phase), 495 µM; in the data set with equine CYP3A95 (setting [7]) it was 928 µM; with equine CYP3A94 (setting [7]), 828 µM; in [2] (read-out: Km (or Km1), 5-OH flunixin formation, horse 1), 22.6 µM. In data set [2] (read-out: Km (or Km1), 5-OH flunixin formation, horse 2), the Km was found to be 13.1 µM. Further, the Vmax2 worked out at 2.32 pmol/min/pmol P450 in the data set on equine CYP3A93 (CYP3A93, low-affinity phase) and 0.665 pmol/min/pmol P450 in the data set on equine CYP1A1 (CYP1A1, low-affinity phase). The Km2 worked out at 1539.8 µM in the data set with equine CYP3A93 (CYP3A93, second phase) and 546.6 µM in the data set on equine CYP1A1 (CYP1A1, second phase). Moreover, the Ki in data set [2] (horse 1) was found to be 710 µM; in [2] (horse 2), 1190 µM.

`Cc1c(Nc2ncccc2C(=O)O)cccc1C(F)(F)F` [FM, flunixin meglumine]: the “Generation of metabolites by CYP2C92” value in the data set with CYP2C92 was “did not generate any measurable metabolites”.

Regarding `CC(O)CCC1C(=O)N(c2ccccc2)N(c2ccccc2)C1=O` (stereo not shown) [Gamma-hydroxy phenylbutazone, gamma-hydroxy phenylbutazone], the Best fit model entry in [3] is given as “Michaelis-Menten”. Further, the Km in data set [3] (horse 1) came to 29.2 µM; in data set [3] (horse 2) it was 79.3 µM. The Vmax in data set [3] (horse 1) worked out at 1.56 pmol/min/pmol P450; in data set [3] (horse 2), 0.218 pmol/min/pmol P450.

As to `CCCCC1C(=O)N(c2ccccc2)N(c2ccc(O)cc2)C1=O` (stereo not shown) [Oxyphenbutazone, oxyphenbutazone], the Best fit model entry (in data set [3]; in the data set on equine CYP3A97 [4]) was “Michaelis-Menten” in each case. Besides, the results for the Vmax (in [3] (horse 1); in [3] (horse 2); in the data set with equine CYP3A97 [4]) were 1.72 pmol/min/pmol P450, 0.279 pmol/min/pmol P450 and 2.66 pmol/min/pmol P450, respectively.

As for `O=c1cc(-c2ccccc2)oc2c1ccc1ccccc12` [alpha-naphthoflavone], the inhibition at 30 min, 10 μM in data set [5] worked out at 79%. For the same molecule, in the data set on recombinant CYP3A97, the “Increased production of oxyphenbutazone compared to control” value is listed as 150%.

With `CC(C)(O)c1ccccc1CC[C@@H](SCC1(CC(=O)O)CC1)c1cccc(/C=C/c2ccc3ccc(Cl)cc3n2)c1` [montelukast], the “Oxyphenbutazone production decreased in microsomal incubations” value in [6] came to 53%.

A word on the Km: it is the substrate concentration at which the rate is half of its maximum. The term inhibition denotes the relative decrease from the control value, in per cent. Higher therefore signals a strong effect.
